Like-named read-outs stand apart in the source and are kept apart here.

A short description of data set [1]: Blood concentrations of morphine glucuronides by ABCC3 -211C>T genotype. The conditions noted are these: for ratio to morphine concentration: heterozygous or homozygous ABCC3 -211C>T versus wild-type; for mean concentration at sampling time 10 to 15 minutes: wild-types (C/C) versus heterozygous and homozygous ABCC3 -211C>T, after single morphine dose.
Data set [2] relates to women following cesarean section. Conditions: cited from earlier work.
Data set [3] has as its system children after tonsillectomy. In words: Codeine-related adverse drug reactions at home after tonsillectomy (parent diary). Conditions: with every one point increase in CYP2D6 TAS; POD 0-2.
The next data set concerns children following T/TA. The conditions noted are these: cited from earlier work.
The subject of data set [4] is children after tonsillectomy. In words: Pain intensity before and after codeine (0-100 visual analog scale). It is filed as in vivo, human. The conditions noted are these: POD 0-2; 0-100 VAS, 45-60 minutes after dose; SE 2.

For `CN1CC[C@]23c4c5ccc(O[C@@H]6O[C@H](C(=O)O)[C@@H](O)[C@H](O)[C@H]6O)c4O[C@H]2[C@@H](O)C=C[C@H]3[C@H]1C5` [M3G, Morphine-3-glucuronide], in data set [1], the “ratio to morphine concentration” value is “significantly lower” and the “mean concentration at sampling time 10 to 15 minutes” value was “higher”.

As to `CN1CC[C@]23c4c5ccc(O)c4O[C@H]2[C@@H](O[C@@H]2O[C@H](C(=O)O)[C@@H](O)[C@H](O)[C@H]2O)C=C[C@H]3[C@H]1C5` [M6G, morphine-6-glucuronide], in data set [1], the “ratio to morphine concentration” value was “significantly lower” and the “mean concentration at sampling time 10 to 15 minutes” value is “higher”. In data set [1] (twelve out of 105 children, all carrying the ABCC3 -211C>T variant, below lower quantitative limit), the “blood concentration at sampling time 10 to 15 minutes” value is less than 1 ng/mL.

On to `COc1ccc2c3c1O[C@H]1[C@@H](O)C=C[C@H]4[C@@H](C2)N(C)CC[C@@]341` [codeine], for which the reported analgesia entry in data set [2] (two patients with CYP2D6 TAS >3, discontinued due to ADRs) was “significant pain relief”; in data set [2] (two patients with CYP2D6 TAS=0) it was “no analgesia”. In addition, in data set [3], the “increase of predicted number of ADRs” value is given as 0.41. The results for the “children withdrawn from study due to intolerable side effects” value in the data set on children following T/TA (PRN administration following T/TA) and with children following T/TA (around-the-clock (ATC) administration following T/TA) were 6.7% and 17.4%, respectively. In addition, the “reduction of pain intensity (average)” value in data set [4] amounted to 28 points.

These data come from US10662476B2 (priority 2011, dated 2020).
